Several values for one entry are separate records, joined by “and”; a condition that tells them apart may be missing. Equal entries are not always repeated. Inconclusive results and toxic doses are left out.
Tested on: L1210 leukemia ip in BDF1 mice, survival T/C
Assay: NCI In Vivo Anticancer Drug Screen. Data for tumor model L1210 Leukemia (intraperitoneal) in B6D2F1 (BDF1) mice
Settings: endpoint: mean survival time, higher = longer survival
Summary of the method: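 Tumor was transplanted into mice, which were then dosed with test compound or vehicle alone. Survival was recorded for each group, and the treated figure was expressed relative to the control figure.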

[1] = dose: 100.0 mg/kg/injection, schedule: Q01DX001 (ip), vehicle: saline with Tween-80
[2] = dose: 200.0 mg/kg/injection, schedule: Q01DX001 (ip), vehicle: saline with Tween-80
[3] = dose: 400.0 mg/kg/injection, schedule: Q01DX001 (ip), vehicle: saline with Tween-80
[4] = dose: 100.0 mg/kg/injection, schedule: Q04DX003 (ip), vehicle: Klucel (hydroxypropylcellulose) (HPC)
[5] = dose: 200.0 mg/kg/injection, schedule: Q04DX003 (ip), vehicle: Klucel (hydroxypropylcellulose) (HPC)
[6] = dose: 400.0 mg/kg/injection, schedule: Q04DX003 (ip), vehicle: Klucel (hydroxypropylcellulose) (HPC)
[7] = dose: 100.0 mg/kg/injection, schedule: Q01DX009 (ip), vehicle: Klucel (hydroxypropylcellulose) (HPC)
[8] = dose: 200.0 mg/kg/injection, schedule: Q01DX009 (ip), vehicle: Klucel (hydroxypropylcellulose) (HPC)
[9] = dose: 400.0 mg/kg/injection, schedule: Q01DX009 (ip), vehicle: Klucel (hydroxypropylcellulose) (HPC)

## Cc1cc(NC(=O)c2cccc(S(=O)(=O)F)c2)cc(C)c1OCc1nc(N)nc(N)c1-c1ccc(Cl)c(Cl)c1
[1]
  T/C: 97 % of control
[2]
  T/C: 88 % of control
[3]
  T/C: 101 % of control

## CCNC(C)(C)C(SSSC(c1ccc(C(F)(F)F)cc1)C(C)(C)NCC)c1ccc(C(F)(F)F)cc1 (stereo not drawn)
dose: 6.25 mg/kg/injection, schedule: Q01DX009 (ip), vehicle: saline
  T/C: 91 % of control
dose: 12.5 mg/kg/injection, schedule: Q01DX009 (ip), vehicle: saline
  T/C: 96 % of control
dose: 25.0 mg/kg/injection, schedule: Q01DX009 (ip), vehicle: saline
  T/C: 95 % of control

## CCC1C(=O)N(c2ccc(S(=O)(=O)O)cc2)N=C1C (stereo not drawn)
[4]
  T/C: 95 % of control
[5]
  T/C: 95 % of control

## COC1=CC(C)(C)c2ccccc2C1=O
dose: 50.0 mg/kg/injection, schedule: Q01DX009 (ip), vehicle: saline sonified
  T/C: 97 % of control
dose: 100.0 mg/kg/injection, schedule: Q01DX009 (ip), vehicle: saline sonified
  T/C: 99 % of control
[4]
  T/C: 97 % of control
dose: 200.0 mg/kg/injection, schedule: Q01DX009 (ip), vehicle: saline sonified
  T/C: 97 % of control
[5]
  T/C: 115 % of control
[6]
  T/C: 97 % of control

## CCC1=C(CC2NCCc3ccccc32)CC2c3cc(OC)c(OC)cc3CCN2C1 (stereo not drawn)
dose: 4.0 mg/kg/injection, schedule: Q04DX003 (ip), vehicle: water
  T/C: 103 % of control
dose: 8.0 mg/kg/injection, schedule: Q04DX003 (ip), vehicle: water
  T/C: 103 % of control
dose: 16.0 mg/kg/injection, schedule: Q04DX003 (ip), vehicle: water
  T/C: 102 % of control
dose: 32.0 mg/kg/injection, schedule: Q04DX003 (ip), vehicle: water
  T/C: 102 % of control
dose: 64.0 mg/kg/injection, schedule: Q04DX003 (ip), vehicle: water
  T/C: 102 % of control
dose: 75.0 mg/kg/injection, schedule: Q01DX001 (ip), vehicle: saline
  T/C: 95 % of control and 103 % of control
dose: 150.0 mg/kg/injection, schedule: Q01DX001 (ip), vehicle: saline
  T/C: 100 % of control and 103 % of control
dose: 300.0 mg/kg/injection, schedule: Q01DX001 (ip), vehicle: saline
  T/C: 100 % of control

## CCCCC(=O)c1ccc(OC)cc1
[7]
  T/C: 100 % of control
[4]
  T/C: 96 % of control
[8]
  T/C: 105 % of control
[5]
  T/C: 102 % of control
[9]
  T/C: 102 % of control
[6]
  T/C: 93 % of control

## C1CSCCS1
[7]
  T/C: 101 % of control
[8]
  T/C: 117 % of control
[9]
  T/C: 100 % of control

## CCOCCOC(=O)COCC(=O)OCCOCC
dose: 100.0 mg/kg/injection, schedule: Q01DX001 (ip), vehicle: saline
  T/C: 100 % of control
dose: 200.0 mg/kg/injection, schedule: Q01DX001 (ip), vehicle: saline
  T/C: 94 % of control
dose: 400.0 mg/kg/injection, schedule: Q01DX001 (ip), vehicle: saline
  T/C: 98 % of control

## O=P(CCC(O)c1ccccc1)(c1ccccc1)c1ccccc1 (stereo not drawn)
[1]
  T/C: 93 % of control
[2]
  T/C: 106 % of control
[3]
  T/C: 100 % of control

## O=NN(CCF)C(=O)NC1CCSCC1
dose: 24.0 mg/kg/injection, schedule: Q01DX001 (ip), vehicle: other
  T/C: 334 % of control
dose: 36.0 mg/kg/injection, schedule: Q01DX001 (ip), vehicle: other
  T/C: 344 % of control
dose: 54.0 mg/kg/injection, schedule: Q01DX001 (ip), vehicle: other
  T/C: 344 % of control

## O=C(O)c1cccn1-c1cccc2c(-n3cccc3C(=O)O)cccc12
dose: 50.0 mg/kg/injection, schedule: Q04DX002 (ip), vehicle: saline + alcohol
  T/C: 99 % of control
dose: 100.0 mg/kg/injection, schedule: Q04DX002 (ip), vehicle: saline + alcohol
  T/C: 89 % of control
dose: 200.0 mg/kg/injection, schedule: Q04DX002 (ip), vehicle: saline + alcohol
  T/C: 96 % of control

Source: PubChem BioAssay AID248 (DTP/NCI, 2004)
